Measured values from US6420405B2, “Pharmaceutical composition for angiotensin II-mediated diseases” (Takeda Chemical Industries, Ltd., priority 1993, dated 2002).

What was measured:
Assay type in all cases: in vivo, rat
[1] = system: Spontaneously Hypertensive Rats (SHR); test: Antihypertensive activity in SHR by co-administration with a calcium antagonistic drug (Test Example 2, tail cuff); conditions: for blood pressure, 1 week / blood pressure, 2 weeks / blood pressure, 1 day: 5 hr after administration; for blood pressure, 1 week / blood pressure, 2 weeks / blood pressure, 1 day / blood pressure, Before admin.: male SHR; for blood pressure, Before admin.: before administration (baseline)
Procedure: Antihypertensive Activity in Spontaneously Hypertensive Rats (SHR) by the Co-administration with a Calcium Antagonistic Drug
Method: Male SHR of 20 week old were divided into six groups (five animals per group). The respective groups were administered orally with the compound 1 (0.1 or 1 mg/kg, p.o.) or MDP (3 mg/kg, p.o.) alone or with a mixture of them once a day for two weeks. On the first, 7th and 14th day at 5 hr after the administration, blood pressure of each test animal was measured by the tail cuff method under unanesthesia.

[2] = system: Spontaneously Hypertensive Rats (SHR); test: Antihypertensive activity in SHR by co-administration with a diuretic drug (Test Example 1, tail cuff); conditions: for blood pressure, 1 week / blood pressure, 2 weeks / blood pressure, 1 day: 5 hr after administration; for blood pressure, 1 week / blood pressure, 2 weeks / blood pressure, 1 day / blood pressure, Before admin.: male SHR; for blood pressure, Before admin.: before administration (baseline); for antihypertensive action: SHR
Procedure: Antihypertensive Activity in Spontaneously Hypertensive Rats (SHR) by the Co-administration with a Diuretic Drug Method: […] The respective groups were administered orally with the compound 1(0.1 or 1 mg/kg,p.o.) or HCT (10 mg/kg, p.o.) alone or both drugs simultaneously once a day for two weeks.

[3] = system: Spontaneously Hypertensive Rats (SHR); test: Antihypertensive activity in SHR by co-administration with a diuretic drug (Test Example 3, compound 2, tail cuff); conditions: for blood pressure, 1 week / blood pressure, 2 weeks / blood pressure, 1 day: 5 hr after administration; for blood pressure, 1 week / blood pressure, 2 weeks / blood pressure, 1 day / blood pressure, Before admin.: male SHR; for blood pressure, Before admin.: before administration (baseline); for antihypertensive action: SHR
Method: Method: Male SHR of 20 week old were divided into 6 groups (five animals in one group). The respective groups were administered orally with the compound 2 (0.1 or 1 mg/kg,p.o.) or HCT (10 mg/kg, p.o.) alone or both drugs simultaneously once a day for two weeks. On the first, 7th and 14th day at 5 hr after the administration, blood pressure of each test animal was measured by the tail cuff method under unanesthesia.

## CCOc1nc2cccc(C(=O)OC(C)OC(=O)OC3CCCCC3)c2n1Cc1ccc(-c2ccccc2-c2nnn[nH]2)cc1 (racemic) [Cpd. 1, (±)-1-(cyclohexyloxycarbonyloxy)ethyl 2-ethoxy-1-[[2′-(1H-tetrazol-5-yl)biphenyl-4-yl]methyl]-1H-benzimidazole-7-carboxylate]
[1]; Cpd. 1 0.1 mg/kg/day p.o.
  blood pressure, 1 week: 158 ± 4 mmHg
  blood pressure, 2 weeks: 160 ± 4 mmHg
  blood pressure, 1 day: 157 ± 2 mmHg
  blood pressure, Before admin.: 190 ± 2 mmHg
[1]; Cpd. 1 1 mg/kg/day p.o.
  blood pressure, 1 week: 131 ± 13 mmHg
  blood pressure, 2 weeks: 142 ± 4 mmHg
  blood pressure, 1 day: 148 ± 3 mmHg
  blood pressure, Before admin.: 196 ± 3 mmHg
[1]; compound 1 alone, 0.1 and 1 mg/kg/day, SHR
  antihypertensive effect: dose dependent antihypertensive effect
[2]; Cpd. 1 0.1 mg/kg/day p.o.
  blood pressure, 1 week: 155 ± 3 mmHg
  blood pressure, 2 weeks: 162 ± 3 mmHg
  blood pressure, 1 day: 161 ± 5 mmHg
  blood pressure, Before admin.: 183 ± 2 mmHg
[2]; Cpd. 1 1 mg/kg/day p.o.
  blood pressure, 1 week: 138 ± 2 mmHg
  blood pressure, 2 weeks: 135 ± 3 mmHg
  blood pressure, 1 day: 153 ± 5 mmHg
  blood pressure, Before admin.: 186 ± 2 mmHg
[2]; compound 1 alone, 0.1 and 1 mg/kg/day
  antihypertensive action: dose dependent antihypertensive action

## CCOc1nc2cccc(C(=O)O)c2n1Cc1ccc(-c2ccccc2-c2nc(=O)o[nH]2)cc1 [Cpd. 2, 2-ethoxy-1-[[2′-(2,5-dihydro-5-oxo-1,2,4-oxadiazole-3-yl)biphenyl-4-yl]methyl]-1H-benzimidazole-7-carboxylic acid]
[3]; Cpd. 2 0.1 mg/kg/day p.o.
  blood pressure, 1 week: 182 ± 6 mmHg
  blood pressure, 2 weeks: 191 ± 8 mmHg
  blood pressure, 1 day: 187 ± 6 mmHg
  blood pressure, Before admin.: 215 ± 5 mmHg
[3]; Cpd. 2 1 mg/kg/day p.o.
  blood pressure, 1 week: 161 ± 4 mmHg
  blood pressure, 2 weeks: 165 ± 3 mmHg
  blood pressure, 1 day: 175 ± 5 mmHg
  blood pressure, Before admin.: 219 ± 7 mmHg
[3]; compound 2 alone, 0.1 and 1 mg/kg/day
  antihypertensive action: dose dependent antihypertensive action

## NS(=O)(=O)c1cc2c(cc1Cl)NCNS2(=O)=O [HCT, hydrochlorothiazide, reference compound]
[3]; HCT 10 mg/kg/day p.o.
  blood pressure, 1 week: 190 ± 5 mmHg
  blood pressure, 2 weeks: 195 ± 3 mmHg
  blood pressure, 1 day: 188 ± 5 mmHg
  blood pressure, Before admin.: 206 ± 5 mmHg
[3]; HCT alone, 10 mg/kg/day, p.o.
  antihypertensive action: did not show antihypertensive action
[2]; HCT 10 mg/kg/day p.o.
  blood pressure, 1 week: 177 ± 3 mmHg
  blood pressure, 2 weeks: 181 ± 2 mmHg
  blood pressure, 1 day: 178 ± 3 mmHg
  blood pressure, Before admin.: 186 ± 3 mmHg
[2]; HCT alone, 10 mg/kg/day, p.o.
  antihypertensive action: did not show antihypertensive action

## COC(=O)C1=C(C)NC(C)=C(C(=O)OCCN2CCN(C(c3ccccc3)c3ccccc3)CC2)C1c1cccc([N+](=O)[O-])c1 (centres unmarked) [MDP, manidipine, reference compound]
[1]; MDP 3 mg/kg/day p.o.
  blood pressure, 1 week: 132 ± 5 mmHg
  blood pressure, 2 weeks: 136 ± 7 mmHg
  blood pressure, 1 day: 157 ± 2 mmHg
  blood pressure, Before admin.: 190 ± 5 mmHg
